The values below are quoted from earlier work in patent US20030039701A1 (priority 2000, published 2003).

Data set [1] concerns prostate and seminal vesicle weights.
The next data set deals with hypogonadal men. As to conditions: Caucasian group.
For data set [2] the following is noted: 300 mg/wk for six weeks; TE: shoulders; ND: shoulders and chest.
Another data set concerns HIV-infected men. To be noted: pharmacological doses.
Another data set deals with young female rats. As to conditions: mini-osmotic pumps.
The test system of a further data set is patients on dialysis. To be noted: compared with placebo.
The next data set addresses T1, aromatase (Homo sapiens, UniProt P11511).
T1 sequence (P11511 1-503): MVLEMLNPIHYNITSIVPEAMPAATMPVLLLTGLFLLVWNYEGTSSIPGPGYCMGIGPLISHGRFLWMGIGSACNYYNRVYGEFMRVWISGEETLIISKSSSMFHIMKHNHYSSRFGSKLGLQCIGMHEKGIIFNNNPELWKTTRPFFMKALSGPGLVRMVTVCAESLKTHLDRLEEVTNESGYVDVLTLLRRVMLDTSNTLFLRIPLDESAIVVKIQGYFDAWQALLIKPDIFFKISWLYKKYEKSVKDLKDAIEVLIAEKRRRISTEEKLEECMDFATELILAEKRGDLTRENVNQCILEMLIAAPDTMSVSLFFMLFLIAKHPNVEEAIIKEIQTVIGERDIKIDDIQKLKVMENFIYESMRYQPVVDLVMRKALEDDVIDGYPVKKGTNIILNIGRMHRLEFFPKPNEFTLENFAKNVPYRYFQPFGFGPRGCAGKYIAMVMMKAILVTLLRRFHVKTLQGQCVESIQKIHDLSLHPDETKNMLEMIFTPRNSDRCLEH
As to conditions: relative to chrysin, AG, ANG.

For another data set, the system named is androgen receptor. To be noted: seminal vesicle.
For data set [3] the following is noted: supplementation.
Assay in data set [4]: not given
The source holds these as a separate data set.

Molecules are shown by their SMILES. Like-named read-outs stand apart in the source and are kept apart here.

Consider `C[C@@H]1CC2=CC(=O)CC[C@@H]2[C@H]2CC[C@]3(C)[C@@H](O)CC[C@H]3[C@@H]21` [MENT, 7α-methyl-19-nor-testosterone], for which the “androgenic potency relative to testosterone” value in [1] is “four- to five-times more androgenic than testosterone”. In addition, the “sexual interest and activity, spontaneous erection” value in the data set on hypogonadal men is “significant increases”. Moreover, the “anabolic potency relative to testosterone” value in the data set with levator ani muscles is recorded as “ten-times as potent as testosterone”.
`CCCCCCC(=O)O[C@H]1CC[C@H]2[C@@H]3CCC4=CC(=O)CC[C@]4(C)[C@H]3CC[C@]12C` [TE, testosterone enanthate]: the “body circumferences (of fifteen)” value in data set [2] is “significant increases”. Moreover, the “sexual interest and activity, spontaneous erection” value with hypogonadal men was “significant increases”.
For `CCCCCCCCCC(=O)O[C@H]1CC[C@H]2[C@@H]3CCC4=CC(=O)CC[C@@H]4[C@H]3CC[C@]12C` [ND, 19-nor-testosterone decanoate], in data set [2], the “body circumferences (of fifteen)” value was “significant increases”. Also, the “total weight, lean body mass, body cell mass, muscle size and strength” value in the data set with HIV-infected men is “significant gains”.
For `C[C@]12CC[C@H]3[C@@H](CC=C4C[C@@H](O)CC[C@@]43C)[C@@H]1CC[C@@H]2O` [5-androstenediol], the “proportion of protein in the body composition” value in the data set with young female rats is on record as “increased the proportion of protein”.
As to `C[C@]12CC[C@H]3[C@@H](CCC4=CC(=O)CC[C@@H]43)[C@@H]1CC[C@@H]2O` [nandrolone, 19-nor-testosterone], the lean body mass entry in the data set on patients on dialysis is on record as “increased significantly”. Moreover, in the data set with young female rats, the energy expenditure entry was “increased energy expenditure”. Moreover, for the setting “body builders”, the “decrease in HDL-cholesterol” value is reported as 25-27% and the “decrease in diastolic blood pressure” value is on record as 25-27%. For the same compound, under “nandrolone use”, the “azoospermia (lack of sperm)” value is “azoospermia”.
For `COc1ccc(-c2coc3cc(O)cc(O)c3c2=O)cc1` [Biochanin A, 5,7-dihydroxy-4′-methoxyisoflavone], on aromatase, the “aromatase inhibition” value is “inhibited aromatase, but to a lesser degree”.
`C[C@]12CC[C@H]3[C@@H](CCC4=CC(=O)CC[C@@]43C)[C@@H]1CC[C@@H]2O` [testosterone]: the “proportion of protein in the body composition” value with young female rats was “increased the proportion of protein”. For the same compound, the “change of affinity to the androgen receptor on conversion by 5-α-reductase” value with androgen receptor was “increasing by seven- to eight-fold”.
For the compound `C[C@]12CC[C@H]3[C@@H](CCC4=C[C@@H](O)CC[C@@]43C)[C@@H]1CC[C@@H]2O` [4-androstenediol], the “urine testosterone concentration relative to 4-androstenedione” value in data set [3] is reported as 10 fold.
On to `C[C@]12CC[C@H](O)CC1=CC[C@@H]1[C@@H]2CC[C@]2(C)C(=O)CC[C@@H]12` [DHEA, dehydro-epiandrosterone], for which the plasma testosterone result was “restored plasma testosterone to levels similar to those observed in young women” in data set [4] (50 mg dose) and “slightly below the levels observed in normal men” in data set [4] (200 mg dose).
